In patent publication US10570179B2, “Substituted urea depsipeptide analogs as activators of the CLPP endopeptidase” (priority 2016, dated 2020):
Converted amounts (≈) assume the structure as drawn. Where two headings read alike, the source gives them in different places. Numbered stars: 1 amine (or outer) side, 2 acyl side, 3 side chain; on linkers, the order of the positions; unused ones are H or OH. Bridge positions count the residues as written; N and C are the ends. Square brackets hold non-standard residues; d marks the D form. Peptide text beside a SMILES is read from it. * marks the point of attachment. Piperazine(2S-CO,4-Me) = CN1CCN[C@H](C(=O)O)C1; Phe(3,5-F2) = N[C@@H](Cc1cc(F)cc(F)c1)C(=O)O; Phe(3,5-Me2) = Cc1cc(C)cc(C[C@H](N)C(=O)O)c1; NH(1-Me-indolin-5-yl) = CN1CCc2cc(N*)ccc21; Morpholine(3S-CO) = O=C(O)[C@@H]1COCCN1; Phe(3-Me) = Cc1cccc(C[C@H](N)C(=O)O)c1; NH(4-Cl-2-F-phenyl) = Fc1cc(Cl)ccc1N*; Pro(4R-Me) = C[C@H]1CN[C@H](C(=O)O)C1; NH(4-Et-phenyl) = CCc1ccc(N*)cc1; NH(4-Me-phenyl) = Cc1ccc(N*)cc1; aThr = C[C@H](O)[C@H](N)C(=O)O; Pip = O=C(O)[C@@H]1CCCCN1; CO = O=C([*:1])[*:2]

Legend:
[1] = Cytotoxicity assay (CellTiter-Glo cell viability); format: cell-based; conditions: African green monkey
Description: Cytotoxicity was determined by determining the effect of compounds on cell viability. Vero (kidney epithelial cells; ATCC CCL-81) monolayers were trypsinized and 5000 cells/well were seeded (10-15% confluency) into white-wall, flat bottom 96 well microwell plates (Corning) using enriched Dulbecco's Modified Eagle's Medium (Hyclone: DMEM/High Glucose) containing 10% Fetal Bovine Serum (ATCC-30-2020). Plates were incubated overnight at 37° C. in the presence of 5% CO2. Drug-free media was then replaced with media containing serial dilutions of test compound or DMSO carrier. After an additional 72 hours of incubation, viability was indirectly measured using the CellTiter-Glo® Luminescent Cell Viability (Promega) assay. Assay plates were read at peak emission wavelength of 560 nm using a EnVision® Multilabel Plate Reader (Perkin Elmer) or PHERAstar FS Multilabel reader (BMG, Cary, N.C.). The concentration of test compounds that inhibited growth by 50% (IC50 value) was computed using nonlinear regression based fitting of inhibition curves using log [inhibitor] vs. response-variable slope (four parameters)—symmetrical equation, in GraphPad Prism version 6 [GraphPad Software, La Jolla, Calif. USA, www.graphpad.com]. For each experiment, compounds were tested in duplicate. IC50 values presented are the range of two biologically independent experiments.

[2] = test system: B. subtilis; assay: Minimal inhibitory concentration, microbroth dilution; format: cell-based; conditions: Bacillus subtilis, read-out: Minimal Inhibitory Concentrations (μM) B. subtilis
Procedure, shortened: (§1)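 MIC is recorded by eye as the lowest drug concentration that stops bacterial growth. Compound is serially diluted twofold in broth, starting at 200 μM final, and bacteria are added at roughly 10^5 cfu/mL. Incubation runs overnight at 37 °C under aerobic conditions, per CLSI guidance.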

[3] = test system: S. pyogenes; assay: as above; format: cell-based; conditions: Streptococcus pyogenes, read-out: Minimal Inhibitory Concentrations (μM) S. pyogenes
Procedure, shortened: as §1

[4] = Plasma pharmacokinetics; format: in vivo, male BALB/c mice; conditions: for Vd: read-out: Vss
[5] = test system: S. pneumoniae; assay: Minimal inhibitory concentration, microbroth dilution; format: cell-based; conditions: Streptococcus pneumoniae, read-out: Minimal Inhibitory Concentrations (μM) S. pneumoniae
Procedure, shortened: as §1

[6] = Vero cells, 72 hours, read-out: Cytotoxicity IC50
[7] = male, BALB/c, mouse, in vivo, iv, 10 mg/kg, Route i.v.
[8] = male, BALB/c, mouse, in vivo, iv

Cc1ccc(NC(=O)N[C@@H](Cc2cccc(C)c2)C(=O)N[C@@H]2C(=O)N3CCC[C@H]3C(=O)N3CCCC[C@H]3C(=O)N[C@@H](C)C(=O)N3C[C@H](C)C[C@H]3C(=O)O[C@H]2C)cc1 [Compound 1, (S)-3-(M-TOLYL)-2-(3-(P-TOLYL)UREIDO)-N-((2R,6S,8AS,14AS,20S,21S,23AS)-2,6,21-TRIMETHYL-5,8,14,19,23-PENTAOXOOCTADECAHYDRO-1H,5H,14H,19H-PYRIDO[2,1-I]DIPYRROLO[2,1-C:2′,1′-L][1]OXA[4,7,10,13]TETRAAZACYCLOHEXADECIN-20-YL)PROPANAMIDE] ({NH(4-Me-phenyl)-CO}-[Phe(3-Me)][aThr]P[Pip]A[Pro(4R-Me)]; ester 2-C)
IC50 at 72 h [1, 6]: 1.59 ± 0.08 µM
MIC [2]: 0.313 µM (≈ 0.246 µg/mL)
MIC [3]: 0.313 µM (≈ 0.246 µg/mL)
C^0 ([4]; Route i.v.): 26862.75 ng/mL
AUC(0-inf) ([4]; male, BALB/c, mouse, in vivo, iv, 10 mg/kg, Route i.v., read-out: AUCinf): 7620 ng·h/mL
AUC(0-t) ([4]; male, BALB/c, mouse, in vivo, iv, 10 mg/kg, Route i.v., read-out: AUClast): 7590 ng·h/mL
clearance ([4]; male, BALB/c, mouse, in vivo, iv, 10 mg/kg, Route i.v., read-out: CL): 21.9 mL/min/kg
half-life ([4]; male, BALB/c, mouse, in vivo, iv, 10 mg/kg, Route i.v., read-out: T1/2 (converted)): 29.4 min
Vd [4, 7]: 0.74 L/kg

Cc1cccc(C[C@H](NC(=O)Nc2ccc(Cl)cc2F)C(=O)N[C@H]2COC(=O)[C@@H]3C[C@@H](C)CN3C(=O)[C@H](C)NC(=O)[C@@H]3CCCCN3C(=O)[C@@H]3CCCN3C2=O)c1 [Compound 8, (S)-2-(3-(4-CHLORO-2-FLUOROPHENYL)UREIDO)-N-((2R,6S,8AS,14AS,20S,23AS)-2,6-DIMETHYL-5,8,14,19,23-PENTAOXOOCTADECAHYDRO-1H,5H,14H,19H-PYRIDO[2,1-I]DIPYRROLO[2,1-C:2′,1′-L][1]OXA[4,7,10,13]TETRAAZACYCLOHEXADECIN-20-YL)-3-(M-TOLYL)PROPANAMIDE]
IC50 at 72 h [1]: > 10 µM
MIC ([2]; MIC): 0.156 µM (≈ 0.126 µg/mL)
MIC ([5]; MIC): 0.078 µM (≈ 0.0632 µg/mL)
MIC ([3]; MIC): 0.156 µM (≈ 0.126 µg/mL)

Cc1cccc(C[C@H](NC(=O)Nc2ccc(Cl)cc2F)C(=O)N[C@H]2COC(=O)[C@@H]3C[C@@H](C)CN3C(=O)[C@H](C)NC(=O)[C@@H]3CCCCN3C(=O)[C@@H]3C[C@@H](O)CN3C2=O)c1 [Compound 10]
IC50 at 72 h [1]: > 50 µM
MIC ([2]; MIC): 0.313 µM (≈ 0.259 µg/mL)
MIC ([5]; MIC): 0.078 µM (≈ 0.0645 µg/mL)
MIC ([3]; MIC): 0.156 µM (≈ 0.129 µg/mL)

Cc1cc(C)cc(C[C@H](NC(=O)Nc2ccc(Cl)cc2F)C(=O)N[C@@H]2C(=O)N3CCC[C@H]3C(=O)N3CCCC[C@H]3C(=O)N[C@@H](C)C(=O)N3C[C@H](C)C[C@H]3C(=O)O[C@H]2C)c1 [Compound 4, (S)-2-(3-(4-CHLORO-2-FLUOROPHENYL)UREIDO)-3-(3,5-DIMETHYLPHENYL)-N-((2R,6S,8AS,14AS,20S,21S,23AS)-2,6,21-TRIMETHYL-5,8,14,19,23-PENTAOXOOCTADECAHYDRO-1H,5H,14H,19H-PYRIDO[2,1-I]DIPYRROLO[2,1-C:2′,1′-L][1]OXA[4,7,10,13]TETRAAZACYCLOHEXADECIN-20-YL)PROPANAMIDE] ({NH(4-Cl-2-F-phenyl)-CO}-[Phe(3,5-Me2)][aThr]P[Pip]A[Pro(4R-Me)]; ester 2-C)
IC50 at 72 h [1]: 11 ± 1.9 µM
MIC ([2]; MIC): 1.25 µM (≈ 1.05 µg/mL)
MIC ([3]; MIC): 1.25 µM (≈ 1.05 µg/mL)

CCc1ccc(NC(=O)N[C@@H](Cc2cccc(C)c2)C(=O)N[C@H]2COC(=O)[C@@H]3C[C@@H](C)CN3C(=O)[C@H](C)NC(=O)[C@@H]3CN(C)CCN3C(=O)[C@@H]3CCCN3C2=O)cc1 [Compound 16, (S)-2-(3-(4-ETHYLPHENYL)UREIDO)-3-(M-TOLYL)-N-((6AS,12S,15AS,17R,21S,23AS)-2,17,21-TRIMETHYL-6,11,15,20,23-PENTAOXOOCTADECAHYDRO-2H,6H,11H,15H-PYRAZINO[2,1-I]DIPYRROLO[2,1-C:2′,1′-L][1]OXA[4,7,10,13]TETRAAZACYCLOHEXADECIN-12-YL)PROPANAMIDE] ({NH(4-Et-phenyl)-CO}-[Phe(3-Me)]SP[Piperazine(2S-CO,4-Me)]A[Pro(4R-Me)]; ester 2-C)
MIC ([5]; MIC): 0.078 µM (≈ 0.0625 µg/mL)
MIC ([3]; MIC): 0.156 µM (≈ 0.125 µg/mL)
AUC(0-inf) [4, 8]: 3770 ng·h/mL
AUC(0-t) [4, 8]: 3760 ng·h/mL
C^0 [4, 8]: 18634.35 ng/mL
clearance [4, 8]: 44.3 mL/min/kg
half-life [4, 8]: 15 min
Vd [4, 7]: 0.57 L/kg

C[C@@H]1C[C@H]2C(=O)O[C@@H](C)[C@H](NC(=O)[C@H](Cc3cc(F)cc(F)c3)NC(=O)Nc3ccc4c(c3)CCN4C)C(=O)N3CCC[C@H]3C(=O)N3CCOC[C@H]3C(=O)N[C@@H](C)C(=O)N2C1 [Compound 32] ({NH(1-Me-indolin-5-yl)-CO}-[Phe(3,5-F2)][aThr]P[Morpholine(3S-CO)]A[Pro(4R-Me)]; ester 2-C)
IC50 at 72 h [1, 6]: 2.87 µM
MIC [2]: 0.313 µM (≈ 0.266 µg/mL)
MIC [5]: 0.078 µM (≈ 0.0664 µg/mL)
MIC [3]: 0.156 µM (≈ 0.133 µg/mL)
